Results as given in paper PMC9814587, “Actinomycetes-derived imine reductases with a preference towards bulky amine substrates” (Communications Chemistry, 2022).
One block for each molecule: values may come before it.

Tests used:
[1] = molecular target: T1, AspRedAm (Aspergillus oryzae, UniProt Q2TW47); assay: reductive amination, HPLC or LC-MS conversion; assay type: biochemical; conditions: 5 mM each, NADP+/GDH/glucose recycling, pH 7.0
T1 construct: gene AO090010000708; N-terminal His tag, expressed in E. coli BL21(DE3), Ni-NTA purified; dimer
T1 sequence (Q2TW47 1-295): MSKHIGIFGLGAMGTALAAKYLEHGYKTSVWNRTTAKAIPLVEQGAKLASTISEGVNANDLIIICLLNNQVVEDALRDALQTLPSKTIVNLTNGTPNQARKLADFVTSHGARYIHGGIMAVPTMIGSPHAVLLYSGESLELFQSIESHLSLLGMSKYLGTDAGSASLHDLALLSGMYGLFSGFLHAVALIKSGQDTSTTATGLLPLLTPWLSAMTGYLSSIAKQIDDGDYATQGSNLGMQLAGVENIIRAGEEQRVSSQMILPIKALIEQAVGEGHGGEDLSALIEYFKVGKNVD

[2] = molecular target: T2, IR-G02 (Streptomyces albidoflavus, UniProt Z9MF94CC36); assay: X-ray crystallography; assay type: binding; conditions: co-crystallised with 10 eq NADP+, pH 7.5, 18 °C
T2 construct: N-terminal His6 tag, expressed in E. coli BL21(DE3), Ni-NTA and SEC purified; homodimer with active site at the interface
T2 sequence (Z9MF94CC36 21-319): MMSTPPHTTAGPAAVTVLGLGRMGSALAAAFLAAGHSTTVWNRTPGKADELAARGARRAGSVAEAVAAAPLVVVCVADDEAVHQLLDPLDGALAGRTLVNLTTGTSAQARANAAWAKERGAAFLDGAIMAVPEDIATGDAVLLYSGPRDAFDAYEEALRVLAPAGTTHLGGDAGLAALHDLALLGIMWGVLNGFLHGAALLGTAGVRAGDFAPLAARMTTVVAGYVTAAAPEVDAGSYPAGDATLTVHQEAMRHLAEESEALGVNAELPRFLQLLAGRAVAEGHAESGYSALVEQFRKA

[3] = molecular target: IR-G02 (imine reductase from Streptomyces albidoflavus) (Streptomyces albidoflavus); assay: crystal structure; apo IR-G02; sitting-drop vapour diffusion at 18 °C; 0.2 M ammonium acetate, 0.1 M Bis-Tris 5.5, 25 % w/v PEG 3350; protein 20 mg ml^-1

Molecule: NC1CC1 [A, cyclopropylamine]
conversion ([1]; amine donor with cyclohexanone): > 90%

X-ray crystallography [2]: NADP^+ complex of IR-G02 (PDB ID: 7XR5)
Molecule: NC(=O)c1ccc[n+]([C@@H]2O[C@H](COP(=O)(O)OP(=O)(O)OC[C@H]3O[C@@H](n4cnc5c(N)ncnc54)[C@H](OP(=O)(O)O)[C@@H]3O)[C@@H](O)[C@H]2O)c1 [NADP^+]

Molecule: O=C1CCCCC1 [compound 1, cyclohexanone]
conversion ([1]; carbonyl donor with cyclopropylamine): > 90%

stoichiometry N [3]: 2
Molecule: IR-G02 (imine reductase from Streptomyces albidoflavus) (enzyme)
